How the values were obtained:
[1] = background art statement; cited from earlier work
[2] = In vitro rat skin permeability test (Test Example 1)
Procedure: The rat abdominal skin was exfoliated, the dermis side of the skin was directed to a side of a receptor layer, and its inside was filled with phosphate buffered saline. Water kept at 37° C. was circulated in a water jacket.

| releasing of ketoprofen (permeated amount through excised rat skin) ([2]; Comparative Study (2), FIG. 3, patch with ketoprofen and lidocaine (Comparative Example 4) versus only ketoprofen (Comparative Example 3)) | releasing effect of the anti-inflammatory analgesic obtained by formulating lidocaine ([2]; summary of Comparative Studies (1) to (3)) | SMILES | solubility in various solvents [1] |
| --- | --- | --- | --- |
|  |  | O=C(O)Cc1ccc(-c2ccccc2)cc1 [Felbinac] | very low |
| inhibited significantly | not observed | CC(C(=O)O)c1cccc(C(=O)c2ccccc2)c1 (stereo not drawn) [ketoprofen] |  |

From US8932626B2, “Felbinac-containing transdermally absorbable preparation” (Teikoku Seiyaku Co., Ltd., priority 2009, dated 2015)
